Measured values published in patent US11104589B2, “Recycling method of amphiphilic surface-active pollutants in water” (INSTITUTE OF PROCESS ENGINEERING, CHINESE ACADEMY OF …, priority 2018, dated 2021).

System: Human lung cancer cell line A549 cells
Test: MTT cytotoxicity assay
Assay type: cell-based
Settings: 24 hours incubation
Method: Human lung cancer cell line A549 cells were grown in DMEM medium supplemented with 10% (v/v) of fetal bovine serum (FBS) and 1% of penicillin streptomycin. A549 was first incubated at 37° C. for 24 hours with a density of 5000 cells per well. After being washed with phosphate buffered saline (PBS, pH=7.4), A549 cells were incubated together with 200 μL of medium having various concentrations for 24 hours (15 μ[…]). Three sets of parallel replicates were prepared for each concentration. Then, the medium was removed and replaced with 20 μL of MTT solution (5 mg/mL). A549 cells were further incubated for 3 hours. The medium having MTT was removed and replaced with 100 μL of DMSO. The plate was then shaken for 10 minutes. To assess cell viability, the optical density of the mixture at 492 nm was measured by an enzyme-linked immunosorbent assay spectrophotometer (infinite […]). For labeling, A549 cells were incubated at 37° C. for 24 hours in a cell culture dish with glass bottom at a density of 5000 cells/well and then mixed with prepared FCNs samples. […] The cell culture dish with glass bottom was covered with a tin foil until cell images were obtained by fluorescence microscopy under excitation at 408 nm, 488 nm and 561 nm.

CCCCCCCCC(=O)O [nonanoic acid]
toxicity to the cells (cytotoxicity, MTT) (concentration greater than 3840 μM): significant toxicity to the cells
effect on cell viability (cytotoxicity, MTT) (low concentration (15-240 μM)): almost no effect on cell viability
